What was measured:
Test in all cases: cell viability (% survival relative to DMSO control, bortezomib = 0%); higher = less cytotoxic
Details in all cases: 72 h
MOLM-13 = system: MOLM-13
How it was run: (§1)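 Percent survival is reported as the mean of duplicate wells. Cells from 10 AML and 5 CML lines were plated in 384-well plates containing compounds at 1, 10, 100, 1000 or 10000 nM and kept for 72 h at 37 °C in 5% CO2. Readout used CellTiter-Glo luminescence, scaled so that vehicle equals 100% and a 10 µM positive control equals 0%.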

NOMO-1 = system: NOMO-1
How it was run: as §1

BV-173 = system: BV-173
How it was run: as §1

THP-1 = system: THP-1
How it was run: as §1

Row | Compound | cell viability (MOLM-13; 1 nM) [%] | cell viability (MOLM-13; 10 nM) [%] | cell viability (MOLM-13; 100 nM) [%] | cell viability (MOLM-13; 1000 nM) [%] | cell viability (MOLM-13; 10000 nM) [%] | cell viability (NOMO-1; 1 nM) [%] | cell viability (NOMO-1; 10 nM) [%] | cell viability (NOMO-1; 100 nM) [%] | cell viability (NOMO-1; 1000 nM) [%] | cell viability (NOMO-1; 10000 nM) [%] | cell viability (BV-173; 1 nM) [%] | cell viability (BV-173; 10 nM) [%] | cell viability (BV-173; 100 nM) [%] | cell viability (BV-173; 1000 nM) [%] | cell viability (BV-173; 10000 nM) [%] | cell viability (THP-1; 1 nM) [%] | cell viability (THP-1; 10 nM) [%] | cell viability (THP-1; 100 nM) [%] | cell viability (THP-1; 1000 nM) [%] | cell viability (THP-1; 10000 nM) [%]
1 | C1CCC(C(CC2CCCCN2)C2CCCCC2)CC1.O=C(O)/C=C\C(=O)O (stereo not given) [Perhexiline] | 83.3 | 99.8 | 112 | 88.2 | 3.56 | 91.6 | 82.6 | 88.7 | 94.9 | 25.9 | 87.1 | 96.1 | 93.8 | 98.9 | 0.141 | 101 | 93.8 | 100 | 89 | -0.129
2 | OCCN1CCN(CCCN2c3ccccc3Sc3ccc(Cl)cc32)CC1 [Perphenazine] | 114 | 68.9 | 84 | 140 | 18.5 | 112 | 93.1 | 106 | 108 | 56.9 | 127 | 97.3 | 89.9 | 117 | 23.2 | 95.7 | 99.2 | 103 | 99.1 | 50.2
3 | C=CCc1ccc2c(c1O)C(=O)c1ccccc1C2=O [R162] | 94 | 107 | 106 | 136 | 99.2 | 99 | 92.1 | 96.2 | 105 | 100 | 101 | 97 | 89.9 | 125 | 118 | 101 | 99.1 | 102 | 109 | 109
4 | O=C(c1ccc(OCCN2CCCCC2)cc1)c1c(-c2ccc(O)cc2)sc2cc(O)ccc12 [Raloxifene] | 79.1 | 82.2 | 106 | 83.2 | 77 | 100 | 95.8 | 99.3 | 100 | 86.5 | 93 | 95.9 | 98.2 | 107 | 92.7 | 94.5 | 97 | 96.5 | 105 | 93.5
5 | NC(=O)c1ncn([C@@H]2O[C@H](CO)[C@@H](O)[C@H]2O)n1 [Ribavirin] | 87.6 | 88 | 84.1 | 129 | 62.9 | 99 | 102 | 103 | 106 | 103 | 93.7 | 106 | 112 | 101 | 91.4 | 96.5 | 103 | 107 | 107 | 112
6 | Nc1ncnc2c1ncn2[C@@H]1O[C@H](CSCC[C@H](N)C(=O)O)[C@@H](O)[C@H]1O [S-Adenosyl Homocysteine] | 100 | 130 | 114 | 115 | 125 | 101 | 104 | 103 | 98.1 | 104 | 98.5 | 83.9 | 99.1 | 104 | 104 | 103 | 90.8 | 100 | 98.9 | 111
7 | CCCc1nn(C)c2c(O)nc(-c3cc(S(=O)(=O)N4CCN(C)CC4)ccc3OCC)nc12 [Sildenafil] | 101 | 112 | 96.3 | 125 | 106 | 86.9 | 104 | 93.2 | 96.8 | 94.9 | 87.4 | 106 | 94.4 | 109 | 92.1 | 90.3 | 99.4 | 97.1 | 99.8 | 101
8 | Cc1coc2c1C(=O)C(=O)c1c-2ccc2c(C)cccc12 [Tanshinone I] | 89.8 | 103 | 127 | 94.3 | 101 | 111 | 103 | 97.3 | 98.6 | 91.5 | 109 | 103 | 92 | 94 | 83.6 | 109 | 102 | 98.9 | 103 | 90.1
9 | CCOC(=O)N1c2ccc(C(F)(F)F)cc2[C@@H](N(Cc2cc(C(F)(F)F)cc(C(F)(F)F)c2)C(=O)OC)C[C@H]1CC [Torcetrapib] | 95.9 | 112 | 141 | 98.3 | 63.7 | 103 | 99.4 | 102 | 99.1 | 99 | 82.9 | 94 | 67 | 49.3 | 26.9 | 103 | 97.6 | 99.4 | 101 | 92.2
10 | Oc1cc(Cl)ccc1Oc1ccc(Cl)cc1Cl [Triclosan] | 102 | 90.9 | 103 | 86.7 | 109 | 102 | 89 | 99.3 | 104 | 105 | 98 | 120 | 107 | 98.4 | 105 | 92.7 | 98.5 | 103 | 108 | 92
11 | COc1cc2c(NC3CCN(C)CC3)nc(N3CCCN(C)CC3)nc2cc1OCCCN(C)C [UNC0224] | 104 | 111 | 92.7 | 104 | 71.1 | 103 | 111 | 98.4 | 95.2 | 90.4 | 109 | 117 | 103 | 91.6 | 83.3 | 103 | 102 | 93.8 | 93 | 79.7
12 | CC(C)C[C@H](NC(=O)[C@@H](O)[C@H](N)Cc1ccccc1)C(=O)O [Ubenimex] | 110 | 100 | 114 | 94.8 | 94.3 | 105 | 105 | 94.8 | 95.5 | 100 | 97.5 | 110 | 90.8 | 78.9 | 99.9 | 89.2 | 97.9 | 93.1 | 84.8 | 94.8
13 | O=P(O)(O)C(O)(Cn1ccnc1)P(=O)(O)O [Zoledronic acid] | 99.2 | 117 | 103 | 84.5 | 99.8 | 98.8 | 101 | 95.6 | 103 | 94.6 | 101 | 109 | 88.8 | 97 | 99 | 104 | 105 | 91.5 | 89.1 | 99.5

Source: the supplement of paper PMC8671470
